Assay results reported in US10201564B2, “Methods of using inhaled nitric oxide gas for treatment of acute respiratory distress syndrome in children” (Mallinckrodt Hospital Products IP Limited, priority 2014, dated 2019).

Test system: pediatric subjects with acute hypoxemic respiratory failure (AHRF)
Experiment: Pediatric AHRF study: adverse events, serious adverse events, deaths, discontinuations
Type: in vivo, human
Conditions: 5 ppm
Protocol: This was a prospective, multicenter, randomized, double-blind, placebo-controlled, parallel-group study of the safety and efficacy of inhaled nitric oxide in pediatric subjects with acute hypoxemic respiratory failure (AHRF). The subjects were randomized to receive either 5 ppm inhaled nitric oxide or placebo.
Nitric Oxide for inhalation at 5 ppm was administered continuously into the inspiratory limb of the ventilator circuit in mechanically ventilated subjects using a blinded version of the INOvent® delivery system.
Subjects received 100% treatment gas (nitric oxide 5 ppm or placebo [nitrogen gas]) until Day 28 or extubation, whichever occurred first.
This was a prospective, multicenter, randomized, double-blind, placebo-controlled, Phase III study to assess the effects of nitric oxide for inhalation in the treatment of acute hypoxic respiratory failure (AHRF) in pediatric subjects. The study population consisted of male and female pediatric subjects, aged 44 weeks postconceptional age to 16 years age, who were admitted to the pediatric intensive care unit (PICU) and who required intubation because of AHRF. The inclusion/exclusion criteria are described in the Patients section below.
Standardized ventilatory management and weaning procedures were used. Ventilatory management was used based on an “open lung approach” using positive end-expiratory pressure (PEEP) to increase lung volume and limiting tidal volumes to reduce plateau pressures. Subjects received nitric oxide for inhalation at 5 ppm or placebo (100% Grade 5 nitrogen gas) into the inspiratory limb of the ventilator circuit using a blinded version of the INOvent® delivery system. The subjects were treated until Day 28 or extubation, whichever occurred first. Subjects were assessed daily using a spontaneous breathing trial, according to the institution's standard of care. Arterial blood gases (ABG), ventilator settings, methemoglobin, oxygenation index, systolic blood pressure, diastolic blood pressure, Pediatric Risk of Mortality (PRISM) III score, and subject positioning (prone or supine) were performed/recorded at specified times during the study. Selected centers also performed plasma cytokine assays, bronchoalveolar lavage fluid (BALF) assays, and a 6-month follow-up assessment.

[1] = AE with death as outcome, not suspected related to treatment
[2] = AE with death as outcome, suspected related to treatment
[3] = relationship to study treatment Not Suspected
[4] = relationship to study treatment Suspected

[N]=O [Nitric Oxide, nitric oxide]
52: Total AEs (n = 26, counted by dictionary-derived term)
0 (0.0)^: Adverse event where treatment was stopped: Sepsis, subjects n (%) (by actual treatment received) | Adverse event where treatment was stopped: Pulmonary hemorrhage, subjects n (%) [3] | Adverse event where treatment was stopped: Sepsis, subjects n (%) [3]
4: Total severe AEs (n = 26)
0 (00) ^: Adverse event where treatment was stopped: Pulmonary hemorrhage, subjects n (%) (by actual treatment received)
1 (3.8%) n (%): Hypotension [1]
safe and well tolerated: overall safety and tolerability in children with AHRF (in words)
2: Total AEs leading to discontinuation of study treatment (n = 26) | Total SAEs (n = 26)
1 (3.8%): Adverse event where treatment was stopped: Bradycardia, subjects n (%) (by actual treatment received) | Adverse event where treatment was stopped: Hypotension, subjects n (%) (by actual treatment received) | Serious adverse event: Bradycardia, subjects n (%) (by actual treatment received) | Serious adverse event: Hypotension, subjects n (%) (by actual treatment received) | Adverse event where treatment was stopped: Bradycardia, subjects n (%) [3] | Adverse event where treatment was stopped: Hypotension, subjects n (%) [3] | Serious adverse event: Bradycardia, subjects n (%) [3] | Serious adverse event: Hypotension, subjects n (%) [3]
1 (3.9%) n (%): Subjects with one or more SAEs (n = 26) | Subjects withdrawn due to AEs (n = 26)
compare favorably: safety profile versus placebo (methemoglobin levels, frequency of AEs, mortality rates) (in words)
0: Total AEs suspected to be related to study treatment (n = 26) | Total SAEs or AEs leading to discontinuation of study treatment suspected to be related to study treatment (n = 26)
2 (7.7%) n (%): Subjects with one or more severe AEs (n = 26)
no more likely: likelihood to experience adverse events versus placebo (in words)
0 (0.0) n (%): Hepatic failure [1] | Intracranial pressure increased [1] | Multi-organ failure [1] | Pancreatitis [1] | Pneumonia, aspergillus [1] | Pulmonary hemorrhage [1] | Renal failure [1] | Renal impairment [1] | Sepsis [1] | Bradycardia [2] | Brain edema [2] | Cardiac arrest [2] | Diabetic ketoacidosis [2] | Hemolytic anemia [2] | Hepatic failure [2] | Hypotension [2] | Intracranial pressure increased [2] | Multi-organ failure [2] | Pancreatitis [2] | Pneumonia, aspergillus [2] | Pulmonary hemorrhage [2] | Renal failure [2] | Renal impairment [2] | Sepsis [2]
0 (0.0): Serious adverse event: Brain edema, subjects n (%) (by actual treatment received) | Serious adverse event: Cardiac arrest, subjects n (%) (by actual treatment received) | Serious adverse event: Cerebral artery occlusion, subjects n (%) (by actual treatment received) | Serious adverse event: Diabetic ketoacidosis, subjects n (%) (by actual treatment received) | Serious adverse event: Hemolytic anemia, subjects n (%) (by actual treatment received) | Serious adverse event: Hemopneumothorax, subjects n (%) (by actual treatment received) | Serious adverse event: Hemothorax, subjects n (%) (by actual treatment received) | Serious adverse event: Hepatic failure, subjects n (%) (by actual treatment received) | Serious adverse event: Hypoxia, subjects n (%) (by actual treatment received) | Serious adverse event: Intracranial pressure increased, subjects n (%) (by actual treatment received) | Serious adverse event: Multi-organ failure, subjects n (%) (by actual treatment received) | Serious adverse event: Pancreatitis, subjects n (%) (by actual treatment received) | Serious adverse event: Pneumonia, aspergillus, subjects n (%) (by actual treatment received) | Serious adverse event: Pulmonary hemorrhage, subjects n (%) (by actual treatment received) | Serious adverse event: Renal failure, acute, subjects n (%) (by actual treatment received) | Serious adverse event: Renal failure, subjects n (%) (by actual treatment received) | Serious adverse event: Renal impairment, subjects n (%) (by actual treatment received) | Serious adverse event: Respiratory failure, subjects n (%) (by actual treatment received) | Serious adverse event: Sepsis, subjects n (%) (by actual treatment received) | Serious adverse event: Subdural hematoma, subjects n (%) (by actual treatment received) | Serious adverse event: Unevaluable event, subjects n (%) (by actual treatment received) | Serious adverse event: Brain edema, subjects n (%) [3] | Serious adverse event: Cardiac arrest, subjects n (%) [3] | Serious adverse event: Cerebral artery occlusion, subjects n (%) [3] | Serious adverse event: Diabetic ketoacidosis, subjects n (%) [3] | Serious adverse event: Hemolytic anemia, subjects n (%) [3] | Serious adverse event: Hemopneumothorax, subjects n (%) [3] | Serious adverse event: Hemothorax, subjects n (%) [3] | Serious adverse event: Hepatic failure, subjects n (%) [3] | Serious adverse event: Hypoxia, subjects n (%) [3] | Serious adverse event: Intracranial pressure increased, subjects n (%) [3] | Serious adverse event: Multi-organ failure, subjects n (%) [3] | Serious adverse event: Pancreatitis, subjects n (%) [3] | Serious adverse event: Pneumonia, aspergillus, subjects n (%) [3] | Serious adverse event: Pulmonary hemorrhage, subjects n (%) [3] | Serious adverse event: Renal failure, acute, subjects n (%) [3] | Serious adverse event: Renal failure, subjects n (%) [3] | Serious adverse event: Renal impairment, subjects n (%) [3] | Serious adverse event: Respiratory failure, subjects n (%) [3] | Serious adverse event: Sepsis, subjects n (%) [3] | Serious adverse event: Subdural hematoma, subjects n (%) [3] | Serious adverse event: Unevaluable event, subjects n (%) [3] | Adverse event where treatment was stopped: Bradycardia, subjects n (%) [4] | Adverse event where treatment was stopped: Hypotension, subjects n (%) [4] | Adverse event where treatment was stopped: Pulmonary hemorrhage, subjects n (%) [4] | Adverse event where treatment was stopped: Sepsis, subjects n (%) [4] | Serious adverse event: Bradycardia, subjects n (%) [4] | Serious adverse event: Brain edema, subjects n (%) [4] | Serious adverse event: Cardiac arrest, subjects n (%) [4] | Serious adverse event: Cerebral artery occlusion, subjects n (%) [4] | Serious adverse event: Diabetic ketoacidosis, subjects n (%) [4] | Serious adverse event: Hemolytic anemia, subjects n (%) [4] | Serious adverse event: Hemopneumothorax, subjects n (%) [4] | Serious adverse event: Hemothorax, subjects n (%) [4] | Serious adverse event: Hepatic failure, subjects n (%) [4]
0 (0)^ ^ n (%): Subjects with one or more AEs suspected to be related to study treatment (n = 26)
16 (61.5%) n (%): Subjects with one or more AEs (n = 26)
